Patent publication US20080090788A1, “Chemical Compounds” (priority 2005, published 2008)

Tests used:
ARH77 cells = type: cell-based; settings: human, 4 days, 2 mM
Procedure: To determine the growth inhibitory effects of compounds 2a, SPY, 2c, 2d, ARH77 cells (2×10^4 cells in 100 μl in each well of a 96 well plate) were incubated with each compound or an equivalent amount of DMSO. Four days later, cell growth was determined using the Aqueous One Solution Cell Proliferation Assay (MTS) (Promega) according to the manufacturer's instructions. Each determination was made in triplicate. Relative cell growth was determined by subtracting the absorbance of wells containing medium and lacking cells, and dividing by absorbance values derived from cells treated with an equivalent volume of DMSO.
Reduction of SFZ in the gut to give SPY is thought to be responsible for much of the toxicity associated with therapy. The putative reduction products of the novel SFZ derivatives were associated with increased or decreased toxicity was investigated. ARH77 cells were treated for 4 days with compounds 2a (i.e., putative reduction product of 3a and 3b), 2c (putative reduction product of 3d), and 2d (putative reduction product of 3e and 3f), and SPY (reduction product of SFZ and 3c). Cell growth was determined using an MTS assay. The percent growth inhibition at 2 mM (FIG. 6) was measured. […] Cytotoxicity of 2a and 2c was slightly less than SPY with 27±8% and 24±3% growth inhibition, respectively. 2d was essentially non-toxic in this assay with −6±16% growth inhibition. The ability of compounds 2a, 2c and 2d to interfere with NF-kB activity in LPS treated U937-kBluc cells was also tested.
ARH77 cells were incubated with 2 mM of 2a, 2c, 2d, SPY or DMSO as a solvent control. After 4 days, cell growth was determined using an MTS assay. Percentage growth inhibition for each compound relative to DMSO treated cells was determined. Mean growth inhibition is shown (±SD). Data are derived from two separate experiments, each performed in triplicate.

NF-kB = NF-kB luciferase reporter activity in LPS-stimulated U937-kBluc cells; type: cell-based, human; settings: for average luciferase activity, % of the activity in DMSO treated cells: 2 mM, ±SD; for IC50: Homo sapiens, U937-kBluc cells, LPS 0.3 μg/ml, 6 hours, mean of duplicate determinations ±SD, read-out: IC50 for inhibition of LPS-induced NF-kB activity
Procedure: U937-kBluc cells were cultured in a 96 well plate (2×10^4 cells in 100 μl in each well) and stimulated with 0.3 μg/ml LPS (lipopolysaccaride; Sigma Aldrich). After 6 hours, cells were collected and luciferase activity determined using the luclite reagent (Perkin Elmer UK, Beaconsfield, UK) and a Packard TopCount (Perkin Elmer), as described by the manufacturer. To determine the effect of SFZ and analogues, various concentrations of each compound or an equivalent amount of DMSO as a solvent control were added 1 hour prior to addition of LPS. Each determination was made in triplicate. A cell line containing an NF-kB reporter construct was used to determine the effects of SFZ analogues on NF-kB activity. Cells were treated with LPS to induce NF-kB activity in the presence or absence of each compound, or DMSO as a solvent control, and luciferase activity analysed as a measure of NF-kB dependent transcription (FIG. 1). […] U937-kBluc cells were treated with LPS to activate NF-kB in the presence of increasing concentrations of SFZ, derivatives (3a-f), or DMSO as a solvent control. For each concentration of compound, the percentage inhibition of luciferase activity relative to cells treated with an equivalent amount of DMSO was calculated. (A) Representative dose response experiment (♦, 3a; ▪, SFZ). Each data point is the mean of triplicate samples (±SEM). (B) Detailed dose response assays were performed for compounds which gave >50% inhibition at 2 mM. The mean IC50 value (±SD) for inhibition of LPS-induced NF-kB activity is derived from 2 independent experiments, each performed in triplicate.

IC50 (NF-kB)	Compound	percent growth inhibition (ARH77 cells)	average luciferase activity, % of the activity in DMSO treated cells (NF-kB)
–	COc1ccc(CNS(=O)(=O)c2ccc(N)cc2)cc1 [Compound 2a, N-(p-methoxybenzyl)-4-aminobenzenesulfonamide]	27±8%	–
–	CNS(=O)(=O)c1ccc(N)cc1 [Compound 2c]	24±3%	–
–	Nc1ccc(S(=O)(=O)NCc2ccc(C(F)(F)F)cc2)cc1 [Compound 2d]	−6±16%	–
> 2000 µM	COc1ccc(CNS(=O)(=O)c2ccc(/N=N/c3ccc(O)cc3)cc2)cc1 [Compound 3b]	–	87.5±3.3%
1100 ± 40 µM	Cc1cc(/N=N/c2ccc(S(=O)(=O)Nc3ccccn3)cc2)cc(C(=O)O)c1O [Compound 3c, 2-hydroxy-3-methyl-5-[4-(pyridin-2-ylsulfamoyl)-phenylazo]benzoic acid]	–	–
1240 ± 106 µM	CNS(=O)(=O)c1ccc(/N=N/c2ccc(O)c(C(=O)O)c2)cc1 [Compound 3d, 2-hydroxy-5-(4-methylsulfamoyl-phenylazo)-benzoic acid]	–	–
> 2000 µM	Nc1ccc(O)c(C(=O)O)c1 [Compound 5-ASA, 5-amino salicylic acid, reference compound]	–	121±32%
> 2000 µM	Nc1ccc(S(=O)(=O)Nc2ccccn2)cc1 [SPY, sulfapyridine, reference compound]	–	151±71%
